Results from patent US4038480A, “6-Aminocarbonyl purine 3',5'-cyclic nucleotides” (ICN Pharmaceuticals, Inc., priority 1973, dated 1977).
pIC50: −log10 of the molar value. Structures can show the parent of a compound that is named as a salt.

Legend:
[1] = target: beef heart cAMP phosphodiesterase; assay: Inhibition of beef heart cAMP phosphodiesterase; type: biochemical; details: read-out: I50, Beef Heart
From the text: (§1) The results appear in Table I below.

[2] = target: rabbit lung cAMP phosphodiesterase; assay: Inhibition of rabbit lung cAMP phosphodiesterase; type: biochemical; details: read-out: I50, Rabbit Lung
From the text: as §1

[3] = system: rabbit kidney high Km C-AMP phosphodiesterase; assay: Vulnerability to degradation (hydrolysis) by high Km C-AMP phosphodiesterase; type: biochemical; details: for resistance to hydrolysis compared with C-AMP: rabbit kidney high Km phosphodiesterase
From the text: In fact, hydrolysis to any appreciable extent could be detected only in the case of compound 8 (hydrolysis at a rate only 8% that of C-AMP).

[4] = Lowering of blood pressure; details: in vivo
steroidogenisis = assay: Activation of steroidogenesis
lipolysis = assay: Activation of lipolysis
[5] = system: bovine brain C-AMP dependent kinase; details: relative to C-AMP; K. Muneyama et al; cited from earlier work
[6] = system: bovine brain C-AMP dependent kinase; assay: Activation of C-AMP dependent protein kinase; type: biochemical; details: for kinase activation compared with C-AMP: bovine brain kinase, comparison in words
Experimental: Preferred carbamoyl compounds prepared as in the preceding examples were assayed for ability to activate protein kinase by the procedure described in K. Muneyama et al, Biochem. 10, 2390 (1971), using bovine brain C-AMP dependent kinase purified according to Kuo & Greengard, in Proc. Nat. Acad. Sci. U.S.A. 64, 1349 (1969). […] K. Muneyama et al, supra.

[7] = Inotropic action (cardiac output, heart rate); type: in vivo; details: inotropic agent
adenyl cyclase = assay: Inhibition of adenyl cyclase; type: biochemical

SMILES | pIC50 [1] | pIC50 [2] | resistance to hydrolysis compared with C-AMP [3] | lowering of blood pressure [4] | activation of steroidogenesis, concentration compared with C-AMP (steroidogenisis) | activation of lipolysis, concentration compared with C-AMP (lipolysis) | other results
O=C(Nc1ccccc1)Nc1ncnc2c1ncn2[C@@H]1O[C@@H]2COP(=O)(O)O[C@H]2[C@H]1OC(=O)Nc1ccccc1 [Compound 4, N^6, 2'-O-bis-(N-Phenylcarbamoyl)adenosine 3',5'-cyclic phosphate sodium salt] | 4.03 | 3.72 | more resistant to hydrolysis than C-AMP | – | – | – | –
CCOC(=O)Nc1ncnc2c1ncn2[C@@H]1O[C@@H]2COP(=O)(O)O[C@H]2[C@H]1O [Compound 8, N^6-(Ethoxycarbonyl)adenosine 3'5'-cyclic phosphate] | 3.89 | 3.68 | more resistant to hydrolysis than C-AMP | act to lower blood pressure | at concentrations substantially lower than C-AMP | at concentrations substantially lower than C-AMP | rate of hydrolysis relative to C-AMP ([3]; rate as % that of C-AMP): 8%
Nc1ncnc2c1nc(S)n2[C@@H]1O[C@@H]2COP(=O)(O)O[C@H]2[C@H]1O [8-thio derivative of C-AMP] | – | – | – | – | – | – | Ka' (highest value previously reported in the literature) [5]: 3.77
O=C(Nc1ccccc1)Nc1ncnc2c1ncn2[C@@H]1O[C@@H]2COP(=O)(O)O[C@H]2[C@H]1O [Compound 7, N^6-(N-Phenylcarbamoyl)adenosine 3',5'-cyclic phosphate] | 4.66 | 3.80 | more resistant to hydrolysis than C-AMP | – | at concentrations substantially lower than C-AMP | at concentrations substantially lower than C-AMP | Ka' (Ka for C-AMP/Ka for test compound) ([6]; Ka from Lineweaver-Burk plot, relative to C-AMP): 4.9; kinase activation compared with C-AMP [6]: superior in kinase activation to C-AMP itself; activation of protein kinase relative to C-AMP (times better) ([6]; bovine brain protein kinase, relative to C-AMP): approximately five; effect on heart rate [7]: without deleteriously affecting heart rate; persistence of inotropic action [7]: persistent in action; increase of cardiac output compared with aminophylline ([7]; compared with aminophylline): the equal of aminophylline in increasing cardiac output; inhibition of adenyl cyclase (adenyl cyclase): inhibit adenyl cyclase
CCCNC(=O)Nc1ncnc2c1ncn2[C@@H]1O[C@@H]2COP(=O)(O)O[C@H]2[C@H]1OC(=O)NCCC [Compound 3, N^6, 2'-O-bis-(N-Propylcarbamoyl)adenosine 3', 5'-cyclic phosphate sodium salt] | – | – | more resistant to hydrolysis than C-AMP | – | – | – | –
O=C(Nc1ccccc1)Nc1ncnc2c1nc(SCc1ccccc1)n2[C@@H]1O[C@@H]2COP(=O)(O)O[C@H]2[C@H]1O [Compound 15, 8-Benzylthio-N^6-(N-phenylcarbamoyl)adenosine 3',5'-cyclic phosphate] | 4.85 | 4.68 | more resistant to hydrolysis than C-AMP | act to lower blood pressure | – | – | kinase activation compared with C-AMP [6]: superior in kinase activation to C-AMP itself; inhibition of adenyl cyclase (adenyl cyclase): inhibit adenyl cyclase
O=C(Nc1ccccc1)Nc1ncnc2c1nc(SCc1ccccc1)n2[C@@H]1O[C@@H]2COP(=O)(O)O[C@H]2[C@H]1OC(=O)Nc1ccccc1 [Compound 12, 8-Benzylthio-N^6,2'-O-bis-(N-phenylcarbamoyl) adenosine 3',5'-cyclic phosphate sodium salt] | 4.66 | 5.00 | more resistant to hydrolysis than C-AMP | – | – | – | –
Cn1c(=O)c2[nH]cnc2n(C)c1=O [Theophylline, reference compound] | 3.89 | 3.64 | – | – | – | – | –
CNC(=O)Nc1ncnc2c1nc(S)n2[C@@H]1O[C@@H]2COP(=O)(O)O[C@H]2[C@H]1OC(=O)NC [Compound 16, N^6,2'-O-bis-(N-Methylcarbamoyl)-8-mercaptoadenosine 3',5'-cyclic phosphate sodium salt] | – | – | more resistant to hydrolysis than C-AMP | – | – | – | –
CNC(=O)Nc1ncnc2c1nc(Br)n2[C@@H]1O[C@@H]2COP(=O)(O)O[C@H]2[C@H]1OC(=O)NC [Compound 11, 8-Bromo-N^6,2'-O-bis-(N-methylcarbamoyl)adenosine 3',5'-cyclic phosphate] | 3.59 | 3.89 | more resistant to hydrolysis than C-AMP | – | – | – | –
CCCNC(=O)Nc1ncnc2c1ncn2[C@@H]1O[C@@H]2COP(=O)(O)O[C@H]2[C@H]1O [Compound 6, N^6-(N-Propylcarbamoyl) adenosine 3',5'-cyclic phosphate] | – | – | more resistant to hydrolysis than C-AMP | act to lower blood pressure | at concentrations substantially lower than C-AMP | at concentrations substantially lower than C-AMP | kinase activation compared with C-AMP [6]: superior in kinase activation to C-AMP itself
CNC(=O)Nc1ncnc2c1ncn2[C@@H]1O[C@@H]2COP(=O)(O)O[C@H]2[C@H]1O [Compound 5, N^6-(N-Methylcarbamoyl) adenosine 3',5'-cyclic phosphate] | – | – | more resistant to hydrolysis than C-AMP | act to lower blood pressure | at concentrations substantially lower than C-AMP | at concentrations substantially lower than C-AMP | –
CNC(=O)Nc1ncnc2c1ncn2[C@@H]1O[C@@H]2COP(=O)(O)O[C@H]2[C@H]1OC(=O)NC [Compound 2, N^6, 2'-O-bis-(N-Methylcarbamoyl)adenosine 3',5'-cyclic phosphate sodium salt] | – | – | more resistant to hydrolysis than C-AMP | – | – | – | –
